# According to US20050142080A1, “Cosmetic or dermatological light protection formulation with a benzoxazole derivative” (Beiersdorf AG, priority 2001, published 2005):
row,Structure (SMILES),σ [mN/m] at 25° C. (surface tension) [mN/m]
1,CCCCCCC(CO)CCCC (centres unmarked) [Butyl Octanol],26.9
2,CCCCCCCCCCC(CO)CCCCCCCC (centres unmarked) [Octyldodecanol],28.9
